Laboratory results taken from patent publication US7951530B2, “Cyclic maltosylmaltose, cyclic maltosymaltose-forming enzyme, their preparation and uses” (Kabushiki Kaisha Hayashibara Seibutsu Kagaku Kenkyujo, priority 2003, dated 2011).

Assays:
[1] = Concentration of CMM in saturated aqueous solution; type: physicochemical; conditions: 25° C.
Experimental: Successively, the glass vessel was sealed, and the suspension was stirred two days with keeping the temperature at 25° C. to give a saturated solution. After removing the solid CMM by filtrating the saturated solution, the moisture content of the filtrate was measured by the drying loss method to determine the concentration of CMM in saturated solution.

[2] = Thermal stability of CMM; type: physicochemical; conditions: 7% (w/v) CMM, 120° C.; for Purity (%): HPLC
Experimental: A powdery hydrous crystalline CMM was dissolved in water for preparing an aqueous solution containing 7% (w/v) of CMM. Eight milliliters each of the resulting solution was pored into a glass tube, sealed closely, and then heated at 120° C. for 30 to 90 min. After cooling the solution, the degree of coloring of the solution was measured. Further, the purity of CMM in the solution was measured by HPLC. The degree of coloring was defined as an absorbance at 480 nm using a 1 cm-cell.

[3] = pH stability of CMM; type: physicochemical; conditions: 4% (w/v) CMM, 100° C. for 24 hours
Experimental: Eight milliliters of each solution was put in a glass tube, sealed and then heated at 100° C. for 24 hours. After cooling the solution, the degree of coloring and the purity of CMM were measured in the same manner in Experiment 17.

[4] = Amino-carbonyl reaction with glycine; type: physicochemical; conditions: […] (w/v) saccharide, 0.5% (w/v) glycine, pH 8.0, 100° C.
Experimental: (§1) As a control, an aqueous solution containing maltose and glycine was prepared in the same manner using maltose except for the powdery hydrous crystalline CMM. Four milliliters each of the solution was put in a glass tube, sealed and then heated at 100° C. for 30, 60, or 90 min. After cooling the solutions, the degrees of coloring of the solutions were measured to estimate the degree of amino-carbonyl reaction. The degree of coloring was defined as an absorbance at 480 nm using a 1 cm-cell.

[5] = Amino-carbonyl reaction with polypeptone; type: physicochemical; conditions: 5% (w/v) saccharide, 5% (w/v) polypeptone, 120° C., blank subtracted
Experimental: as §1, with “polypeptone” for “glycine”, “120°” for “100°”, “reaction. As a blank test, a solution containing polypeptone only was heated in the same manner.” for “reaction.”, “cm-cell after subtracting the absorbance of the blank test.” for “cm-cell.”

[6] = Clathrating action of CMM; type: physicochemical; conditions: for strength of clathrating activity in comparison with branched cyclodextrin: on a weight basis
Text: One hundred grams of the aqueous solution was admixed with 1.2 g of methanol, 1.7 g of ethanol, or 2.2 g of acetic acid as flavor components for allowing CMM to clathrate the flavor components. Successively, each solution was filtrated, and the resulting filtrate was freeze-dried to remove unclathrated flavor component. As a control, “ISOELITE P”, a mixture of branched cyclodextrins commercialized by Maruha Corporation, Tokyo, Japan, which has been known to have a clathrating activity, was tested by the same procedure. In order to measure the amount of flavor component clathrated in the freeze-dried powder, 1 g of each freeze-dried powder was dissolved in 5 ml of water and admixed with 5 ml of diethylether to extract the flavor component, and the extraction was repeated once more. The amount of the extracted flavor component in diethylether was measured by gas-chromatography.

[7] = test system: rat cecal contents; test: Test for fermentability by rat cecal contents; type: in vitro ADME, Wister-rat
Experimental: According to the method of Oku et al., described in Journal of Nutritional Science and Vitaminology, vol. […] The cecal contents was collected under an anaerobic condition by killing a Wister-rat under anesthesia and suspended into 4-folds by volume of 0.1 M sodium bicarbonate aqueous solution, and then used for the test. CMM was added to the cecal contents by about 7% (w/w) of the weight of the cecal contents. The amounts of CMM at just after mixing and after 12 hours were determined by gas-chromatography. […] About 92% of CMM was not fermented and remained.

[8] = test system: mice; test: Acute toxicity test; type: in vivo
Text: By using mice, CMM obtained by the method in Experiment 14 was orally administrated to the mice for its acute toxicity test. […] Though not so accurate, the value of LD50 of CMM was 5 g/kg-mouse weight or higher.

[9] = Reducing power by the Somogyi-Nelson method; type: physicochemical
Text: It was concluded that the saccharide was a non-reducing saccharide substantially.

[10] = test system: Pancreas α-amylase
Text: (§2) 43, 23-29 (1990), the digestibility of CMM by salivary α-amylase, artificial gastric juice, pancreas amylase, and small intestinal enzymes were investigated using the powdery hydrous crystalline CMM, obtained by the method in Experiment 14.

[11] = test system: Small intestinal enzymes
Text: as §2

**Q.** What does the source list for `OC[C@H]1O[C@@H]2OC[C@H]3O[C@H](O[C@H]4[C@H](O)[C@@H](O)[C@@H](OC[C@H]5O[C@H](O[C@H]1[C@H](O)[C@H]2O)[C@H](O)[C@@H](O)[C@@H]5O)O[C@@H]4CO)[C@H](O)[C@@H](O)[C@@H]3O` [CMM, cyclo{>6)-α-D-glucopyranosyl-(1>4)-α-D-glucopyranosyl-(1>6)-α-D-glucopyranosyl-(1>4)-α-D-glucopyranosyl-(1>}]?
**A.** saturated concentration of CMM to water [1]: about 8.0 % (w/w); Degree of coloring (A480 nm) ([2]; heating time 0 min): 0; Purity (%) ([2]; heating time 0 min): 100%; Degree of coloring (A480 nm) ([2]; heating time 30 min): 0; Purity (%) ([2]; heating time 30 min): 100%; Degree of coloring (A480 nm) ([2]; heating time 60 min): 0; Purity (%) ([2]; heating time 60 min): 100%; Degree of coloring (A480 nm) ([2]; heating time 90 min): 0; Purity (%) ([2]; heating time 90 min): 100%; Degree of coloring (A480 nm) ([3]; pH 2.0, Acetate buffer): 0; Purity (%) ([3]; pH 2.0, Acetate buffer): 93%; Degree of coloring (A480 nm) ([3]; pH 3.0, Acetate buffer): 0; Purity (%) ([3]; pH 3.0, Acetate buffer): 100%; Degree of coloring (A480 nm) ([3]; pH 4.0, Acetate buffer): 0; Purity (%) ([3]; pH 4.0, Acetate buffer): 100%; Degree of coloring (A480 nm) ([3]; pH 5.0, Acetate buffer): 0; Purity (%) ([3]; pH 5.0, Acetate buffer): 100%; Degree of coloring (A480 nm) ([3]; pH 6.0, Tris-HCl buffer): 0; Purity (%) ([3]; pH 6.0, Tris-HCl buffer): 100%; Degree of coloring (A480 nm) ([3]; pH 7.0, Tris-HCl buffer): 0; Purity (%) ([3]; pH 7.0, Tris-HCl buffer): 100%; Degree of coloring (A480 nm) ([3]; pH 8.0, Tris-HCl buffer): 0; Purity (%) ([3]; pH 8.0, Tris-HCl buffer): 100%; Degree of coloring (A480 nm) ([3]; pH 9.0, Ammonium buffer): 0; Purity (%) ([3]; pH 9.0, Ammonium buffer): 100%; Degree of coloring (A480 nm) ([4]; heating time 0 min): 0.00; Degree of coloring (A480 nm) ([4]; heating time 30 min): 0.00; Degree of coloring (A480 nm) ([4]; heating time 60 min): 0.00; Degree of coloring (A480 nm) ([4]; heating time 90 min): 0.00; Degree of coloring (A480 nm) ([5]; heating time 0 min): 0.00; Degree of coloring (A480 nm) ([5]; heating time 30 min): 0.00; Degree of coloring (A480 nm) ([5]; heating time 60 min): 0.00; Degree of coloring (A480 nm) ([5]; heating time 90 min): 0.00; strength of clathrating activity in comparison with branched cyclodextrin ([6]; acetic acid): ~0.8 fold; strength of clathrating activity in comparison with branched cyclodextrin ([6]; ethanol): ~0.5 fold; Amount of flavor component clathrated (mg/g-freeze-dried powder) ([6]; flavor component Acetic acid): 30.55 mg/g-freeze-dried powder; Amount of flavor component clathrated (mg/g-freeze-dried powder) ([6]; flavor component Ethanol): 4.20 mg/g-freeze-dried powder; Amount of flavor component clathrated (mg/g-freeze-dried powder) ([6]; flavor component Methanol): 4.30 mg/g-freeze-dried powder; strength of clathrating activity in comparison with branched cyclodextrin ([6]; methanol): about 1.3 folds; CMM not fermented and remained ([7]; after 12 hours): About 92%; concentration of CMM in the cecal contents ([7]; after 12 hours): 63.0 mg/g-cecal contents; concentration of CMM in the cecal contents ([7]; just after adding): 68.5 mg/g-cecal contents; mortality ([8]; oral administration at the highest possible dose): no mouse died; LD50 ([8]; oral administration, mice, though not so accurate): ≥ 5 g/kg-mouse weight; reducing power [9]: less than the measurable limit; Degradation rate (%) [10]: 0%; Degradation rate (%) [11]: 0%
